Data as given in ChEMBL document CHEMBL4507283, “Data for DCP probe BI-1935” (2021).

Columns and labels:
[1] = target: T1, Polyunsaturated fatty acid 5-lipoxygenase (Homo sapiens) (UniProt P09917); assay: 5LO Eurofins-Panlabs selectivity data (BI)
T1 sequence (whole entry): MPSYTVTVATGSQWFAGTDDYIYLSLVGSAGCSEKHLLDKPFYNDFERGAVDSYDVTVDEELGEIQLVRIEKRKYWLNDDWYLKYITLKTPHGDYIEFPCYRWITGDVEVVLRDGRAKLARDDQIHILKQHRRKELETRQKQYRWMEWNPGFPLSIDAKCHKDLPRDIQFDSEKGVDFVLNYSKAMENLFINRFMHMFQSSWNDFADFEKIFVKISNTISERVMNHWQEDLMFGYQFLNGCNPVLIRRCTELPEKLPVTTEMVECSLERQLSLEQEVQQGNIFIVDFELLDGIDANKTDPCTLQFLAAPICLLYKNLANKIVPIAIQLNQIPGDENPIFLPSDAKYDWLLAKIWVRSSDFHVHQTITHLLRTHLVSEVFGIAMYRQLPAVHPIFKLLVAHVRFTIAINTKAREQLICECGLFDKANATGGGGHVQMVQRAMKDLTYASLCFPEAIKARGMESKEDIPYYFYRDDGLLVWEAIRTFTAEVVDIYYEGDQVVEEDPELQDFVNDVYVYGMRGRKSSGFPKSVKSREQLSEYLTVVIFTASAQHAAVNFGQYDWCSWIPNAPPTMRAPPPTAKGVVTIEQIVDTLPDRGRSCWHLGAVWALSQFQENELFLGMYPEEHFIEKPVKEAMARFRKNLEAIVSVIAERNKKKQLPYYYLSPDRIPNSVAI

[2] = target: D(1A) dopamine receptor (Homo sapiens) (UniProt P21728); assay: D1/HU Eurofins-Panlabs selectivity data (BI); conditions: Compound concentration 10.0 uM
[3] = target: D(4) dopamine receptor (Homo sapiens) (UniProt P21917); assay: D4.2/H Eurofins-Panlabs selectivity data (BI); conditions: Compound concentration 10.0 uM
[4] = target: Cathepsin G (Homo sapiens) (UniProt P08311); assay: PEPCATHEPSG Eurofins-Panlabs selectivity data (BI); conditions: Compound concentration 10.0 uM
[5] = target: Aurora kinase B (Homo sapiens) (UniProt Q96GD4); conditions: Compound concentration 1000.0 nM
[6] = target: Calcium/calmodulin-dependent protein kinase type 1D (Homo sapiens) (UniProt Q8IU85); conditions: Compound concentration 1000.0 nM
[7] = target: Cyclin-dependent kinase 7 (Homo sapiens) (UniProt P50613); conditions: Compound concentration 1000.0 nM
[8] = target: Mitogen-activated protein kinase kinase kinase 12 (Homo sapiens) (UniProt Q12852); conditions: Compound concentration 1000.0 nM
[9] = target: Serine/threonine-protein kinase 17A (Homo sapiens) (UniProt Q9UEE5); conditions: Compound concentration 1000.0 nM
[10] = target: Dual specificity tyrosine-phosphorylation-regulated kinase 1A (Homo sapiens) (UniProt Q13627); conditions: Compound concentration 1000.0 nM
[11] = target: Epidermal growth factor receptor (Homo sapiens) (UniProt P00533); conditions: Compound concentration 1000.0 nM
[12] = target: Ephrin type-A receptor 4 (Homo sapiens) (UniProt P54764); conditions: Compound concentration 1000.0 nM
[13] = target: Fibroblast growth factor receptor 3 (Homo sapiens) (UniProt P22607); conditions: Compound concentration 1000.0 nM
[14] = tested on: Receptor-type tyrosine-protein kinase FLT3 (Homo sapiens), P36888 [UNDEFINED MUTATION]; conditions: Compound concentration 1000.0 nM
[15] = target: Homeodomain-interacting protein kinase 4 (Homo sapiens) (UniProt Q8NE63); conditions: Compound concentration 1000.0 nM
[16] = target: Tyrosine-protein kinase JAK2 (Homo sapiens) (UniProt O60674); conditions: Compound concentration 1000.0 nM
[17] = target: Serine/threonine-protein kinase LATS2 (Homo sapiens) (UniProt Q9NRM7); conditions: Compound concentration 1000.0 nM
[18] = tested on: Leucine-rich repeat serine/threonine-protein kinase 2 (Homo sapiens), Q5S007 [G2019S]; conditions: Compound concentration 1000.0 nM
[19] = target: Mitogen-activated protein kinase kinase kinase 13 (Homo sapiens) (UniProt O43283); conditions: Compound concentration 1000.0 nM
[20] = target: Serine/threonine-protein kinase MAK (Homo sapiens) (UniProt P20794); conditions: Compound concentration 1000.0 nM
[21] = target: Mitogen-activated protein kinase kinase kinase 10 (Homo sapiens) (UniProt Q02779); conditions: Compound concentration 1000.0 nM
[22] = target: Serine/threonine-protein kinase mTOR (Homo sapiens) (UniProt P42345); conditions: Compound concentration 1000.0 nM
[23] = target: Serine/threonine-protein kinase Nek6 (Homo sapiens) (UniProt Q9HC98); conditions: Compound concentration 1000.0 nM
[24] = target: Serine/threonine-protein kinase NIM1 (Homo sapiens) (UniProt Q8IY84); conditions: Compound concentration 1000.0 nM
[25] = target: Serine/threonine-protein kinase NLK (Homo sapiens) (UniProt Q9UBE8); conditions: Compound concentration 1000.0 nM
[26] = tested on: Phosphatidylinositol 4,5-bisphosphate 3-kinase catalytic subunit alpha isoform (Homo sapiens), P42336 [I800L]; conditions: Compound concentration 1000.0 nM
[27] = target: Serine/threonine-protein kinase N1 (Homo sapiens) (UniProt Q16512); conditions: Compound concentration 1000.0 nM
[28] = target: Serine/threonine-protein kinase D2 (Homo sapiens) (UniProt Q9BZL6); conditions: Compound concentration 1000.0 nM
[29] = target: Serine/threonine-protein kinase RIO2 (Homo sapiens) (UniProt Q9BVS4); conditions: Compound concentration 1000.0 nM
[30] = target: BDNF/NT-3 growth factors receptor (Homo sapiens) (UniProt Q16620); conditions: Compound concentration 1000.0 nM
[31] = target: Testis-specific serine/threonine-protein kinase 1 (Homo sapiens) (UniProt Q9BXA7); conditions: Compound concentration 1000.0 nM
[32] = target: Serine/threonine-protein kinase ULK2 (Homo sapiens) (UniProt Q8IYT8); conditions: Compound concentration 1000.0 nM
[33] = target: 5-hydroxytryptamine receptor 1A (Homo sapiens) (UniProt P08908); conditions: Compound concentration 10.0 uM
[34] = target: Sodium-dependent dopamine transporter (Homo sapiens, UniProt Q01959); conditions: Compound concentration 10.0 uM
[35] = target: Alpha-2A adrenergic receptor (Homo sapiens) (UniProt P08913); conditions: Compound concentration 10.0 uM

Chain of Sodium-dependent dopamine transporter (Q01959 whole entry): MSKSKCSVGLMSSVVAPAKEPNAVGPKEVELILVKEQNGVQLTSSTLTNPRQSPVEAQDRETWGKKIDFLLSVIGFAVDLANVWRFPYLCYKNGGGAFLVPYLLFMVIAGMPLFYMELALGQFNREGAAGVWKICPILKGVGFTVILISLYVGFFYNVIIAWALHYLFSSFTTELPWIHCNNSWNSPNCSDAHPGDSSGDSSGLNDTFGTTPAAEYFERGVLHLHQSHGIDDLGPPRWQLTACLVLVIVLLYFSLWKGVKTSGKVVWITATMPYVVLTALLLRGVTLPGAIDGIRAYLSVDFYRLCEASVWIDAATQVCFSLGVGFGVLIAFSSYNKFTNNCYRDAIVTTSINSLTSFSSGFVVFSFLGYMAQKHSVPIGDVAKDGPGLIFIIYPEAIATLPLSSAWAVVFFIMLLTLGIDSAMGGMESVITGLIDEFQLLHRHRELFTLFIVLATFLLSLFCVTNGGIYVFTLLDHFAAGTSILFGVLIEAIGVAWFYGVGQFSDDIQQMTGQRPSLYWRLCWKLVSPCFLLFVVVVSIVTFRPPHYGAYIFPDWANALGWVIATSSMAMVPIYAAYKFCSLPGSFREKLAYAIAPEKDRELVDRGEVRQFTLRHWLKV
Chain of BDNF/NT-3 growth factors receptor (Homo sapiens) (Q16620 32-822 limits assumed): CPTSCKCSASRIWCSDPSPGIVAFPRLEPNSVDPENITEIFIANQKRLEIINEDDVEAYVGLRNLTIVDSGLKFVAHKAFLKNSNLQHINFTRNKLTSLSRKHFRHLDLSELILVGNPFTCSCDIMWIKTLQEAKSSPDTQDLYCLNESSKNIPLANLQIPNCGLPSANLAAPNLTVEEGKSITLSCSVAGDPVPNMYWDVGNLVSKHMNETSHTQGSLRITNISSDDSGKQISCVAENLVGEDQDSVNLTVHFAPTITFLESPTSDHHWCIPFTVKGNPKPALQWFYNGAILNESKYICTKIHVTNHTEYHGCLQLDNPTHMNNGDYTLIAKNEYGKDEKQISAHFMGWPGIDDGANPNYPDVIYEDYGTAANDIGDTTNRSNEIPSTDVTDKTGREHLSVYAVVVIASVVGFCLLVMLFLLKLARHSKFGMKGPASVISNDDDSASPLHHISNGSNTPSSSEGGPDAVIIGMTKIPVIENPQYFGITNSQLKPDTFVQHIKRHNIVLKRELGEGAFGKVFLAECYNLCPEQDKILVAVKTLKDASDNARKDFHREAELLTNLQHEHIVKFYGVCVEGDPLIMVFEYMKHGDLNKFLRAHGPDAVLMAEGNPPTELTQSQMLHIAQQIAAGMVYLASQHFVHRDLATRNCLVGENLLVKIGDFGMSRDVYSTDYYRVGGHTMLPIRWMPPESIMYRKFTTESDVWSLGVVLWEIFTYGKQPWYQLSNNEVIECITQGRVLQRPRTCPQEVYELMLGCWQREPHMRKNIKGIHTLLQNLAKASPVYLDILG
Chain of D(1A) dopamine receptor (Homo sapiens) (P21728 whole entry): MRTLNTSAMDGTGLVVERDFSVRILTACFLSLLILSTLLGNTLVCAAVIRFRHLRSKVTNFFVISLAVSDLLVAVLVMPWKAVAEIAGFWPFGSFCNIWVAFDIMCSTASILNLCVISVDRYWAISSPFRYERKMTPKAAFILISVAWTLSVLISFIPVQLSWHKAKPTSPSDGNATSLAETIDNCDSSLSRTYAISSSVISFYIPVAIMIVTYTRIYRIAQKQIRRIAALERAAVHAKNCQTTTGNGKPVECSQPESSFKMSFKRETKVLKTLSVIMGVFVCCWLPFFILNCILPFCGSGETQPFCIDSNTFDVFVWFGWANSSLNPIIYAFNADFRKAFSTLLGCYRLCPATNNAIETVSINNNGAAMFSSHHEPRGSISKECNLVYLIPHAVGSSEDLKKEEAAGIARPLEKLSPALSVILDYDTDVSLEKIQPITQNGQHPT
Chain of Serine/threonine-protein kinase LATS2 (Homo sapiens) (Q9NRM7 whole entry): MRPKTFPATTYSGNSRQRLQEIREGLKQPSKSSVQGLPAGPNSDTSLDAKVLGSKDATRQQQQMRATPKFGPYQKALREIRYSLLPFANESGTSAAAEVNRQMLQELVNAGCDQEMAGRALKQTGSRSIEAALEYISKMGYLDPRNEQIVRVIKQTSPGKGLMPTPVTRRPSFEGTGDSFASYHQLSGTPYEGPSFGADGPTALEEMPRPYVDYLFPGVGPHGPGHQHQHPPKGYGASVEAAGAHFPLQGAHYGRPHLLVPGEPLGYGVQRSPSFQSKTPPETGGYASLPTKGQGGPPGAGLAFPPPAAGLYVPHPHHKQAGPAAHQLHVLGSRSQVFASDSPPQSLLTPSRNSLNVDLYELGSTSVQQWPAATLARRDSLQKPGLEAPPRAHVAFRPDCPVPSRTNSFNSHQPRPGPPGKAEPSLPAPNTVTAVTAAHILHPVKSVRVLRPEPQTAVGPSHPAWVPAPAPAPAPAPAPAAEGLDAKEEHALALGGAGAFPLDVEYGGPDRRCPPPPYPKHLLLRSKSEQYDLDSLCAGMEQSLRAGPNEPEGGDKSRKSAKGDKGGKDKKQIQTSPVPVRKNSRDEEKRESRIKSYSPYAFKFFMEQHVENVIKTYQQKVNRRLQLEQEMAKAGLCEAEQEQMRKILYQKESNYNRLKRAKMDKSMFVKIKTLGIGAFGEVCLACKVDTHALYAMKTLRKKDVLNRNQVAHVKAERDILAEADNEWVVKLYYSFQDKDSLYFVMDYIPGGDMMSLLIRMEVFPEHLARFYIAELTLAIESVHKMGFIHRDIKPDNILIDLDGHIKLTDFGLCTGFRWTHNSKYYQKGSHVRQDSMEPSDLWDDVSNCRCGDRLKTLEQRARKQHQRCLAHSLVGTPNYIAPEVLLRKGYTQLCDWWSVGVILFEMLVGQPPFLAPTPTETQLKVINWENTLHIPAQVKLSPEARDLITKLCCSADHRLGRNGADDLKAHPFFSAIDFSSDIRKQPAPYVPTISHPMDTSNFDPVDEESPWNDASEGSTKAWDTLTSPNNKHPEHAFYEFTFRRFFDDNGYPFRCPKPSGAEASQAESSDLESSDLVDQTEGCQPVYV
Chain of Phosphatidylinositol 4,5-bisphosphate 3-kinase catalytic subunit alpha isoform (Homo sapiens), P42336 [I800L] (P42336 whole entry I800L, canonical isoform): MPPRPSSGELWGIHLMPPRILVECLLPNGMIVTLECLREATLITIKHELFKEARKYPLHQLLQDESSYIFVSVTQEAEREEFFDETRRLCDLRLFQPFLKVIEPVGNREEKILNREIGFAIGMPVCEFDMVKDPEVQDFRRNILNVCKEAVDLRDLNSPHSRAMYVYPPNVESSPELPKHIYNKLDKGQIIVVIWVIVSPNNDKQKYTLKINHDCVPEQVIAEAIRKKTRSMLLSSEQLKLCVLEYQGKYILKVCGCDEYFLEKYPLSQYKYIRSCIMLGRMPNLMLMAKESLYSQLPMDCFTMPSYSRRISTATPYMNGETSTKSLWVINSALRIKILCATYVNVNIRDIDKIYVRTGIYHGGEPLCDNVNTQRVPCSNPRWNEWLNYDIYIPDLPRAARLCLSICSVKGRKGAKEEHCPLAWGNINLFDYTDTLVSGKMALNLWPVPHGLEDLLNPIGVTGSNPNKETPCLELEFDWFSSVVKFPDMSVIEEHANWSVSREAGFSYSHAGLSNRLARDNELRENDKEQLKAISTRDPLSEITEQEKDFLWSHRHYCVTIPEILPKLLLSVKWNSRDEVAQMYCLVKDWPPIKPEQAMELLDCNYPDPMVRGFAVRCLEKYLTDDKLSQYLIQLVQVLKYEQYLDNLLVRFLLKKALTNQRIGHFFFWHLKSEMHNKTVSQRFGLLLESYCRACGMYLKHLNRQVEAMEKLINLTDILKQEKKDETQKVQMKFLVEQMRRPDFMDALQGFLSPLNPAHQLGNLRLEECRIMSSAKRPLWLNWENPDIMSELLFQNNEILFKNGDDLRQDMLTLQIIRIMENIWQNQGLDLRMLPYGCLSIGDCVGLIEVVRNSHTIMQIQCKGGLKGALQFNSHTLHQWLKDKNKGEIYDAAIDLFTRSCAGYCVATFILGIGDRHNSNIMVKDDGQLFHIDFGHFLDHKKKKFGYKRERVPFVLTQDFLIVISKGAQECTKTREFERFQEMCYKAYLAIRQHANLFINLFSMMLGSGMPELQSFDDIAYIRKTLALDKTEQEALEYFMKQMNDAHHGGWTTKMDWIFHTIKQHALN
Chain of Serine/threonine-protein kinase 17A (Homo sapiens) (Q9UEE5 whole entry): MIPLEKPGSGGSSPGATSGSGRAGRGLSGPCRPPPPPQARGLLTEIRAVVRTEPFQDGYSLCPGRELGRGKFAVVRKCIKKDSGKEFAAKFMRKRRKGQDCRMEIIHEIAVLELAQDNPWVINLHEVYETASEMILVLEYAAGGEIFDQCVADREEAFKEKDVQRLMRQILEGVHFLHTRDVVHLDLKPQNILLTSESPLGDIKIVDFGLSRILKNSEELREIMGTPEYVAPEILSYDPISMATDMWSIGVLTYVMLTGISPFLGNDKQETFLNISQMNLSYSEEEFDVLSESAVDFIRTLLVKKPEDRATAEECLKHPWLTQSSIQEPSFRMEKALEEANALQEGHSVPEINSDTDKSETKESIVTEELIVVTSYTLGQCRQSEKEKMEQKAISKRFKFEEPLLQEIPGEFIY
Chain of Aurora kinase B (Homo sapiens) (Q96GD4 whole entry): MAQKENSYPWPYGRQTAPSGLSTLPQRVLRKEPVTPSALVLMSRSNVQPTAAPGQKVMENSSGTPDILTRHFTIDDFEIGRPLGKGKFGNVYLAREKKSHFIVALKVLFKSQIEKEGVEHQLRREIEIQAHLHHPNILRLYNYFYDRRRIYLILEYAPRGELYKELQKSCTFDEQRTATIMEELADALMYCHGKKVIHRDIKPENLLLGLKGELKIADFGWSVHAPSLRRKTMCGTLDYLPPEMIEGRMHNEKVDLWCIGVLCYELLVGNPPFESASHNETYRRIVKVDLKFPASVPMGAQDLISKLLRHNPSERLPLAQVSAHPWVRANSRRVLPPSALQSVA
Chain of Cathepsin G (Homo sapiens) (P08311 whole entry): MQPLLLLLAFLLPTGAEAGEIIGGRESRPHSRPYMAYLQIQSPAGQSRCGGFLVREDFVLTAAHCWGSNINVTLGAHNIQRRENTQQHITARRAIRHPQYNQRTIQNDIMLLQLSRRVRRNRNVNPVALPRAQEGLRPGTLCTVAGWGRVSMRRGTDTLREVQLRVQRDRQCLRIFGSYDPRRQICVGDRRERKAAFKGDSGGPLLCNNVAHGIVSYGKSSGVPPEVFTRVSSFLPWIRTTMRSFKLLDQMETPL

CCOCCn1cc(C(=O)Nc2ccc(-n3nc(-c4cccnc4)cc3C(F)(F)F)cn2)ccc1=O [BI 1935]
active: residual activity ([1]; Compound concentration 10.0 uM) 27.5% | residual activity ([1]; Compound concentration 30.0 uM) 2% | residual activity [25] 47% | inhibition [34] 82.1%
inactive: residual activity ([1]; Compound concentration 0.3 uM) 99% | residual activity ([1]; Compound concentration 1.0 uM) 88% | residual activity ([1]; Compound concentration 3.0 uM) 74% | residual activity [2] 110% | residual activity [3] 103% | residual activity [4] 117% | residual activity [5] 100% | residual activity [6] 100% | residual activity [7] 88% | residual activity [8] 100% | residual activity [9] 100% | residual activity [10] 77% | residual activity [11] 100% | residual activity [12] 91% | residual activity [13] 84% | residual activity [14] 79% | residual activity [15] 100% | residual activity [16] 91% | residual activity [17] 65% | residual activity [18] 100% | residual activity [19] 100% | residual activity [20] 89% | residual activity [21] 100% | residual activity [22] 100% | residual activity [23] 96% | residual activity [24] 100% | residual activity [26] 71% | residual activity [27] 76% | residual activity [28] 100% | residual activity [29] 60% | residual activity [30] 100% | residual activity [31] 100% | residual activity [32] 74% | inhibition [33] 13.9% | inhibition [35] -1.74%
